Assay results taken from ChEMBL document CHEMBL1145087 (J Med Chem, 2003).

Tests used:
[1] = biological target: T1, Progesterone receptor (Homo sapiens, UniProt P06401); assay: Agonistic activity against human progesterone receptor in CV-1 cells; format: functional, cell-based
T1 sequence (P06401 whole entry): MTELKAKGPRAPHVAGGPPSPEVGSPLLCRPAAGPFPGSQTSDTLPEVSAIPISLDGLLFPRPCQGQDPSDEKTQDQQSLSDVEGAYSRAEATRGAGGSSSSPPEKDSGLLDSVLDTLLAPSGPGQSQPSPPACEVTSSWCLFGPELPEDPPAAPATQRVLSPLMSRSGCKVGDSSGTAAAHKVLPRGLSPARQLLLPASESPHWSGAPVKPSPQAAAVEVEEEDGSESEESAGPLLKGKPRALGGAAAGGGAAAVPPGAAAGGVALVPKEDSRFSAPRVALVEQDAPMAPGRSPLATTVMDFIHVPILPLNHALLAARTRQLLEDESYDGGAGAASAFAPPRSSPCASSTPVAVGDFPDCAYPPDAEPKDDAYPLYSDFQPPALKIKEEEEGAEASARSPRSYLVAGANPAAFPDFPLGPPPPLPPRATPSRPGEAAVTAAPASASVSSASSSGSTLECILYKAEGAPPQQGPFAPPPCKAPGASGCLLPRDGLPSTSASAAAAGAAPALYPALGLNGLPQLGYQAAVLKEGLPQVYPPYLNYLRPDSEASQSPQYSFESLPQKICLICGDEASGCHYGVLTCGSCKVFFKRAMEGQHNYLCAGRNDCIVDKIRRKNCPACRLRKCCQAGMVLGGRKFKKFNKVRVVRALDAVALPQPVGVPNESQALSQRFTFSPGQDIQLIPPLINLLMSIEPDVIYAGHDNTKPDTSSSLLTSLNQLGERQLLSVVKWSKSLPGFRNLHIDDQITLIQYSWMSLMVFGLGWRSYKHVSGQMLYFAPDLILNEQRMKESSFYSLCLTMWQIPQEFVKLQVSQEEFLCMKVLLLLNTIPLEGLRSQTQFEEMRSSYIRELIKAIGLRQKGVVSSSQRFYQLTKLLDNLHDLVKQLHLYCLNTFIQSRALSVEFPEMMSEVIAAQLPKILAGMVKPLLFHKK

[2] = biological target: T1, Progesterone receptor; assay: Agonistic activity against human progesterone receptor in T47D breast cancer cells; format: functional, cell-based
[3] = biological target: T2, Progesterone receptor (Homo sapiens) (UniProt P06401); assay: Percent agonistic effect towards human progesterone receptor in CV-1 cells; format: functional, cell-based
T2 sequence (whole entry): T1 sequence (P06401 whole entry)

[4] = biological target: T2, Progesterone receptor (Homo sapiens); assay: Percent agonistic effect towards human progesterone receptor in T47D breast cancer cells; format: functional, cell-based
[5] = biological target: T1, Progesterone receptor; assay: Binding affinity towards human progesterone receptor A isoform using progesterone as radioligand
[6] = biological target: T3, Glucocorticoid receptor (Homo sapiens, UniProt P04150); assay: Inhibition of Dexamethasone binding to human glucocorticoid receptor expressed in baculovirus […] cells
T3 sequence (P04150 whole entry): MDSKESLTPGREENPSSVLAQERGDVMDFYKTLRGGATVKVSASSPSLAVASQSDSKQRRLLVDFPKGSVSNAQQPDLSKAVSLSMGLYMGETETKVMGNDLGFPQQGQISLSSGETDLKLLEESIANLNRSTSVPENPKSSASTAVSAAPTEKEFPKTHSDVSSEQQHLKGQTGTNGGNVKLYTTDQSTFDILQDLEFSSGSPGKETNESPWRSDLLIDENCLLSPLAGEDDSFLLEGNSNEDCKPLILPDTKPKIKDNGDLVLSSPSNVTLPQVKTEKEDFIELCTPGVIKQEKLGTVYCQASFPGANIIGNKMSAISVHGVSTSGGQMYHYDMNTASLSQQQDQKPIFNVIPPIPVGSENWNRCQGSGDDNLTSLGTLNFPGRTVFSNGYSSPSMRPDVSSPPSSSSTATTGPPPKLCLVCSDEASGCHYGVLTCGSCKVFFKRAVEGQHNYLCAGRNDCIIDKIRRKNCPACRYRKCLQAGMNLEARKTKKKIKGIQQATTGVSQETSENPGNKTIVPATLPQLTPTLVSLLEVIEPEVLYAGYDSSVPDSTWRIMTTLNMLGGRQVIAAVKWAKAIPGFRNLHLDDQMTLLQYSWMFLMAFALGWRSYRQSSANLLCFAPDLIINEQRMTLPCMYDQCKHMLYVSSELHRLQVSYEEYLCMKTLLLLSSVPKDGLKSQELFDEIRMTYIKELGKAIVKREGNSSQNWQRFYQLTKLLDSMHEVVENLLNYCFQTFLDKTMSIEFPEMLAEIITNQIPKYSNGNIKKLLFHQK

[7] = species: Homo sapiens; assay: Relative potency for human androgen and progesterone receptors
[8] = species: Homo sapiens; assay: Relative potency for human estrogen and progesterone receptors
[9] = species: Homo sapiens; assay: Relative potency for human glucocorticoid and progesterone receptors
[10] = species: Homo sapiens; assay: Relative potency for human mineralocorticoid and progesterone receptors
[11] = biological target: T4, Androgen receptor (Homo sapiens, UniProt P10275)
T4 sequence (P10275 whole entry): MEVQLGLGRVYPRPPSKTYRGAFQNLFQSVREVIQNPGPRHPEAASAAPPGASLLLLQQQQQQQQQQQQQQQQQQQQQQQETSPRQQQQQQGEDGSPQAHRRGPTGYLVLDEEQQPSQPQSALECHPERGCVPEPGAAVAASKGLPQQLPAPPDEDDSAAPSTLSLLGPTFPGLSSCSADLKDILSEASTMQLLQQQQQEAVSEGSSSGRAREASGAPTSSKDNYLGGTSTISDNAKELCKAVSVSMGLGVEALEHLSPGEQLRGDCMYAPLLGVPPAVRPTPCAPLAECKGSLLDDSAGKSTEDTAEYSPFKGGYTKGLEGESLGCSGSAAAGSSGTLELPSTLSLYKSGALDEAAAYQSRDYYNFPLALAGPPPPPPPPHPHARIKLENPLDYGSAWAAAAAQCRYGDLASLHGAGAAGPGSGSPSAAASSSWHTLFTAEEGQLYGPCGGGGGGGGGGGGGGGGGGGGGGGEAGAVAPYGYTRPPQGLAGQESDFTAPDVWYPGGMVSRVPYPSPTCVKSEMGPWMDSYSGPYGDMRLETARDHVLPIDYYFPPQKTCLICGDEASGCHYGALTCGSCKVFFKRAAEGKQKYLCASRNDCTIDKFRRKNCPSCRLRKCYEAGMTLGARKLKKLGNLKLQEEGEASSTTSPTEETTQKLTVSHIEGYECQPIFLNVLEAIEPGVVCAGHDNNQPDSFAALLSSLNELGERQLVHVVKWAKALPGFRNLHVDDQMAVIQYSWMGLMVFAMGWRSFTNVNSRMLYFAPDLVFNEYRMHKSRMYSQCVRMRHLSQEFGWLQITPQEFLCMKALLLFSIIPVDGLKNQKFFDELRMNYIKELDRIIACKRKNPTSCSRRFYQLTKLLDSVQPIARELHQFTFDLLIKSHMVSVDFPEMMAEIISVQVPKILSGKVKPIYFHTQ
Description: Inhibition of human androgen receptor at 10e-12 to 10e-5 M

[12] = biological target: T3, Glucocorticoid receptor
Description: Inhibition of human glucocorticoid receptor at 10e-12 to 10e-5 M

[13] = biological target: T4, Androgen receptor; assay: biochemical
Description: Inhibition of DHT binding to human androgen receptor expressed in baculovirus SF-12 cells

Structure (SMILES): CC1=CC(C)(C)Nc2ccc3c(c21)/C(=C/c1ccc(F)cc1)Oc1c(F)cccc1-3
- EC50 [1]: 4 nM
- EC50 [2]: 8 nM
- Efficacy [3]: 175%
- Efficacy [4]: 36%
- Ki [5]: 0.71 nM

Structure (SMILES): CC1=CC(C)(C)Nc2ccc3c(c21)/C(=C/c1ccccc1C#N)Oc1ccc(F)cc1-3
- EC50 [1]: 11 nM
- EC50 [2]: 97 nM
- Efficacy [3]: 78%
- Efficacy [4]: 62%
- Ki [5]: 11.4 nM

Structure (SMILES): CC1=CC(C)(C)Nc2ccc3c(c21)/C(=C/c1ccccc1C)Oc1ccc(F)cc1-3
- Ki [6]: 236 nM
- EC50 [1]: 3.6 nM
- EC50 [2]: 19 nM
- Efficacy [3]: 178%
- Efficacy [4]: 49%
- Ki [5]: 0.55 nM
- Ratio [7]: 228
- Ratio [8]: > 1000
- Ratio [9]: 181
- Ratio [10]: > 1000
- IC50 [11]: 820 nM
- IC50 [12]: 650 nM
- Ki [13]: > 1000 nM

Structure (SMILES): CC1=CC(C)(C)Nc2ccc3c(c21)/C(=C/c1ccccc1C)Oc1ccccc1-3
- EC50 [2]: 28 nM
- Efficacy [4]: 45%

Structure (SMILES): CC1=CC(C)(C)Nc2ccc3c(c21)/C(=C/c1ccccc1)Oc1ccc(F)cc1-3
- Ki [6]: 207 nM
- EC50 [2]: 28 nM
- Efficacy [3]: 176%
- Efficacy [4]: 55%
- Ki [5]: 0.62 nM
- Ratio [7]: 121
- Ratio [8]: > 1000
- Ratio [9]: 387
- Ratio [10]: > 1000
- IC50 [11]: 640 nM
- IC50 [12]: 2050 nM
- Ki [13]: > 1000 nM

Structure (SMILES): CSc1ccccc1/C=C1\Oc2ccc(F)cc2-c2ccc3c(c21)C(C)=CC(C)(C)N3
- Ki [6]: 386 nM
- EC50 [1]: 6.2 nM
- EC50 [2]: 41 nM
- Efficacy [3]: 132%
- Efficacy [4]: 53%
- Ki [5]: 0.59 nM
- Ratio [7]: > 1000
- Ratio [8]: > 1000
- Ratio [9]: 139
- Ratio [10]: > 1000
- IC50 [12]: 860 nM
- Ki [13]: > 1000 nM

Structure (SMILES): CCCc1ccccc1/C=C1\Oc2ccc(F)cc2-c2ccc3c(c21)C(C)=CC(C)(C)N3
- EC50 [1]: 4.5 nM
- EC50 [2]: 59 nM
- Efficacy [3]: 123%
- Efficacy [4]: 46%
- Ki [5]: 1.6 nM

Structure (SMILES): CC1=CC(C)(C)Nc2ccc3c(c21)/C(=C/c1ccccn1)Oc1ccc(F)cc1-3
- EC50 [1]: 15 nM
- EC50 [2]: 44 nM
- Efficacy [3]: 50%
- Efficacy [4]: 40%
- Ki [5]: 9.2 nM

Structure (SMILES): CC1=CC(C)(C)Nc2ccc3c(c21)/C(=C/c1ncccc1C)Oc1ccc(F)cc1-3
- Ki [6]: 874 nM
- EC50 [1]: 4.5 nM
- EC50 [2]: 12 nM
- Efficacy [3]: 125%
- Efficacy [4]: 49%
- Ki [5]: 0.42 nM
- Ratio [8]: > 1000
- Ratio [10]: > 1000
- IC50 [11]: 203 nM
- IC50 [12]: 188 nM
- Ki [13]: > 1000 nM

Structure (SMILES): CC1=CC(C)(C)Nc2ccc3c(c21)/C(=C/c1cccc(F)c1)Oc1c(F)cccc1-3
- EC50 [1]: 2.7 nM
- EC50 [2]: 18 nM
- Efficacy [3]: 170%
- Efficacy [4]: 51%
- Ki [5]: 5.5 nM

Structure (SMILES): CC1=CC(C)(C)Nc2ccc3c(c21)/C(=C/c1ccccc1Br)Oc1ccc(F)cc1-3
- EC50 [1]: 9 nM
- EC50 [2]: 50 nM
- Efficacy [3]: 147%
- Efficacy [4]: 37%
- Ki [5]: 16.4 nM

Structure (SMILES): CC1=CC(C)(C)Nc2ccc3c(c21)/C(=C/c1ccncc1)Oc1ccc(F)cc1-3
- EC50 [1]: 5.8 nM
- EC50 [2]: 4.9 nM
- Efficacy [3]: 105%
- Efficacy [4]: 49%
- Ki [5]: 1.5 nM

Structure (SMILES): CC1=CC(C)(C)Nc2ccc3c(c21)/C(=C/c1ccccc1F)Oc1ccc(F)cc1-3
- EC50 [2]: 29 nM
- Efficacy [3]: 190%
- Efficacy [4]: 47%
- Ki [5]: 0.62 nM

Structure (SMILES): CC1=CC(C)(C)Nc2ccc3c(c21)/C(=C/c1ccccc1C(F)(F)F)Oc1ccc(F)cc1-3
- EC50 [1]: 14 nM
- EC50 [2]: 161 nM
- Efficacy [3]: 127%
- Efficacy [4]: 56%
- Ki [5]: 45.5 nM

Structure (SMILES): CC1=CC(C)(C)Nc2ccc3c(c21)/C(=C/c1ccccc1OC(F)(F)F)Oc1ccc(F)cc1-3
- EC50 [1]: 11 nM
- EC50 [2]: 190 nM
- Efficacy [3]: 136%
- Efficacy [4]: 56%
- Ki [5]: 6.4 nM

Structure (SMILES): CC1=CC(C)(C)Nc2ccc3c(c21)/C(=C/c1ccccc1Cl)Oc1ccc(F)cc1-3
- Efficacy [3]: 146%
- Ki [5]: 22.4 nM

Structure (SMILES): CC1=CC(C)(C)Nc2ccc3c(c21)/C(=C/c1ccccc1C(C)C)Oc1ccc(F)cc1-3
- EC50 [1]: 4 nM
- EC50 [2]: 54 nM
- Efficacy [3]: 156%
- Efficacy [4]: 43%
- Ki [5]: 1.9 nM

Structure (SMILES): CC1=CC(C)(C)Nc2ccc3c(c21)/C(=C/c1ccccc1C=O)Oc1ccc(F)cc1-3
- EC50 [1]: 11 nM
- EC50 [2]: 48 nM
- Efficacy [3]: 107%
- Efficacy [4]: 72%
- Ki [5]: 2.6 nM
